In assay [1] the test system is MV-4-11 human acute myeloid leukemia. Put plainly: MV-4-11 CCK-8 proliferation assay. Type of assay: cell-based. The conditions noted are these: MV-4-11 cells, 72 hr. The method, then:
(§1) The following cancer cell lines were employed: A549 human lung carcinoma (ATCC, #CCL-185); BT-474 human breast carcinoma (ATCC, #HTB-20); MDA-MB-231 human breast adenocarcinoma (ATCC, #CRM−HTB-26); MDA-MB-468 human breast adenocarcinoma (ATCC, #HTB-132); MV-4-11 human acute myeloid leukemia (ATCC, #CRL-9591); and U-87 MG human glioblastoma (ATCC, #HTB-14). Cell lines were cultured essentially according to ATCC recommendations.
(§2) 3-fold serial dilutions of each test compound were prepared ranging from 20 μM to 1.02 nM.
(§3) % Inhibition=100−(D−B)/(S−B)*100%. • S: Absorbance of cells treated with DMSO • D: Absorbance of compound-treated cells • B: Absorbance of medium with DMSO without cells

For assay [2], the system named is U-87 MG human glioblastoma. Put plainly: U87 MG CCK-8 proliferation assay. It is filed as cell-based. The conditions noted are these: U-87 MG cells, read-out: U87MG CCK-8. The procedure:
as §1, §2, §3

The values that follow come from patent US20240124460A1, “METHODS AND COMPOSITIONS FOR TARGETED PROTEIN DEGRADATION” (Ranok Therapeutics (Hangzhou) Co. Ltd., priority 2020, published 2024).

Where two headings read alike, the source gives them in different places.

Take `CCOc1cc(N2CCC(C(=O)N3CCC(COc4ccc(-c5ccc(NC(=O)c6ccc(OC)c(-c7cccc(OC)c7)c6)cc5)c(OCCCN(C)C)c4)CC3)CC2)ccc1Nc1ncc2c(n1)N(S(C)(=O)=O)c1ccccc1C(=O)N2C` [Compound 158, N-(2′-(3-(dimethylamino)propoxy)-4′-((1-(1-(3-ethoxy-4-((5-methyl-11-(methylsulfonyl)-6-oxo-6,11-dihydro-5H-benzo[e]pyrimido[5,4-b][1,4]diazepin-2-yl)amino)phenyl)piperidine-4-carbonyl)piperidin-4-yl)methoxy)-[1,1′-biphenyl]-4-yl)-3′,6-dimethoxy-[1,1′-biphenyl]-3-carboxamide]: in assay [1] (Homo sapiens, MV4-11), the EC50 was more than 1000 nM.

As for `CCOc1cc(N2CCC(C(=O)N3CCC(CN4CCC(Oc5ccc(-c6ccc(NC(=O)c7ccc(OC)c(-c8cccc(OC)c8)c7)cc6)cc5)CC4)CC3)CC2)ccc1Nc1ncc2c(n1)N(C)c1ccccc1C(=O)N2C` [Compound 154, N-(4′-((1-((1-(1-(4-((5,11-dimethyl-6-oxo-6,11-dihydro-5H-benzo[e]pyrimido[5,4-b][1,4]diazepin-2-yl)amino)-3-ethoxyphenyl)piperidine-4-carbonyl)piperidin-4-yl)methyl)piperidin-4-yl)oxy)-[1,1′-biphenyl]-4-yl)-3′,6-dimethoxy-[1,1′-biphenyl]-3-carboxamide], in assay [1] (Homo sapiens, MV4-11), the EC50 is more than 1000 nM.

In turn, `CCOc1cc(N2CCC(C(=O)N3CCC(CN4CCC(Oc5ccc(-c6ccc(NC(=O)c7ccc(OC)c(-c8cccc(OC)c8)c7)cc6)c(OCCCN(C)C)c5)CC4)CC3)CC2)ccc1Nc1ncc2c(n1)N(S(C)(=O)=O)c1ccccc1C(=O)N2C` [Compound 155, N-(2′-(3-(dimethylamino)propoxy)-4′-((1-((1-(1-(3-ethoxy-4-((5-methyl-11-(methylsulfonyl)-6-oxo-6,11-dihydro-5H-benzo[e]pyrimido[5,4-b][1,4]diazepin-2-yl)amino)phenyl)piperidine-4-carbonyl)piperidin-4-yl)methyl)piperidin-4-yl)oxy)-[1,1′-biphenyl]-4-yl)-3′,6-dimethoxy-[1,1′-biphenyl]-3-carboxamide] yielded an EC50 in assay [1] (Homo sapiens, MV4-11) of more than 1000 nM.

`CCOc1cc(N2CCC(C(=O)N3CCC(N4CCN(Cc5ccc(-n6c(O)nnc6-c6cc(C(C)C)c(O)cc6O)cc5F)CC4)CC3)CC2)ccc1Nc1ncc2c(n1)N(C)c1ccccc1C(=O)N2C` [Compound 033, 2-((4-(4-(4-(4-(4-(3-(2,4-dihydroxy-5-isopropylphenyl)-5-hydroxy-4H-1,2,4-triazol-4-yl)-2-fluorobenzyl)piperazin-1-yl)piperidine-1-carbonyl)piperidin-1-yl)-2-ethoxyphenyl)amino)-5,11-dimethyl-5,11-dihydro-6H-benzo[e]pyrimido[5,4-b][1,4]diazepin-6-one]: in assay [2] (Homo sapiens, U-87 MG, 72 h), the EC50 is 100 to 1000 nM.

With `CCOc1cc(N2CCC(C(=O)N3CCC(CN4CCN(Cc5ccc(-n6c(C(=O)N[C@H](C)C(F)(F)F)nnc6-c6cc(CC)c(O)cc6O)cc5)CC4)CC3)CC2)ccc1Nc1ncc2c(n1)N(S(C)(=O)=O)c1ccccc1C(=O)N2C` [Compound 176, (R)-4-(4-((4-((1-(1-(3-ethoxy-4-((5-methyl-11-(methylsulfonyl)-6-oxo-6,11-dihydro-5H-benzo[e]pyrimido[5,4-b][1,4]diazepin-2-yl)amino)phenyl)piperidine-4-carbonyl)piperidin-4-yl)methyl)piperazin-1-yl)methyl)phenyl)-5-(5-ethyl-2,4-dihydroxyphenyl)-N-(1,1,1-trifluoropropan-2-yl)-4H-1,2,4-triazole-3-carboxamide], the EC50 in assay [2] (72 hr) is 100 to 1000 nM.

Turning to `CCOc1cc(N2CCC(C(=O)NCCCOc3ccc(-c4ccc(NC(=O)c5ccc(OC)c(-c6cccc(OC)c6)c5)cc4)c(OCCCN(C)C)c3)CC2)ccc1Nc1ncc2c(n1)N(S(C)(=O)=O)c1ccccc1C(=O)N2C` [Compound 157, N-(3-((4′-(3′,6-dimethoxy-[1,1′-biphenyl]-3-carboxamido)-2-(3-(dimethylamino)propoxy)-[1,1′-biphenyl]-4-yl)oxy)propyl)-1-(3-ethoxy-4-((5-methyl-11-(methylsulfonyl)-6-oxo-6,11-dihydro-5H-benzo[e]pyrimido[5,4-b][1,4]diazepin-2-yl)amino)phenyl)piperidine-4-carboxamide], the EC50 in assay [1] (Homo sapiens, MV4-11) was more than 1000 nM.

In assay [1], `CCOc1cc(N2CCC(C(=O)N3CCC(CN4CCN(Cc5ccc(-n6c(C(=O)N[C@@H](C)C(F)(F)F)nnc6-c6cc(CC)c(O)cc6O)cc5)CC4)CC3)CC2)ccc1Nc1ncc2c(n1)N(S(C)(=O)=O)c1ccccc1C(=O)N2C` [Compound 177, (S)-4-(4-((4-((1-(1-(3-ethoxy-4-((5-methyl-11-(methylsulfonyl)-6-oxo-6,11-dihydro-5H-benzo[e]pyrimido[5,4-b][1,4]diazepin-2-yl)amino)phenyl)piperidine-4-carbonyl)piperidin-4-yl)methyl)piperazin-1-yl)methyl)phenyl)-5-(5-ethyl-2,4-dihydroxyphenyl)-N-(1,1,1-trifluoropropan-2-yl)-4H-1,2,4-triazole-3-carboxamide] gave an EC50 of less than 100 nM.

Take `CCOc1cc(N2CCC(C(=O)N3CCC(COc4ccc(-c5ccc(NC(=O)c6ccc(OC)c(-c7cccc(OC)c7)c6)cc5)c(OCCCN(C)C)c4)CC3)CC2)ccc1Nc1ncc2c(n1)N(C)c1ccccc1C(=O)N2C` [Compound 151, N-(4′-((1-(1-(4-((5,11-dimethyl-6-oxo-6,11-dihydro-5H-benzo[e]pyrimido[5,4-b][1,4]diazepin-2-yl)amino)-3-ethoxyphenyl)piperidine-4-carbonyl)piperidin-4-yl)methoxy)-2′-(3-(dimethylamino)propoxy)-[1,1′-biphenyl]-4-yl)-3′,6-dimethoxy-[1,1′-biphenyl]-3-carboxamide]: the EC50 in assay [2] (Homo sapiens, U-87 MG, 72 h) was more than 1000 nM.

The compound `CCOc1cc(N2CCC(C(=O)N3CCC(CN4CCC(Oc5ccc(-c6ccc(NC(=O)c7ccc(OC)c(-c8cccc(OC)c8)c7)cc6)c(OCCCN(C)C)c5)CC4)CC3)CC2)ccc1Nc1ncc2c(n1)N(C)c1ccccc1C(=O)N2C` [Compound 153, N-(4′-((1-((1-(1-(4-((5,11-dimethyl-6-oxo-6,11-dihydro-5H-benzo[e]pyrimido[5,4-b][1,4]diazepin-2-yl)amino)-3-ethoxyphenyl)piperidine-4-carbonyl)piperidin-4-yl)methyl)piperidin-4-yl)oxy)-2′-(3-(dimethylamino)propoxy)-[1,1′-biphenyl]-4-yl)-3′,6-dimethoxy-[1,1′-biphenyl]-3-carboxamide] yielded an EC50 in assay [1] (Homo sapiens, MV4-11) of more than 1000 nM.

The compound `CCOc1cc(N2CCC(C(=O)N3CCC(CN4CCC(Oc5ccc(-c6ccc(NC(=O)c7ccc(OC)c(-c8cccc(OC)c8)c7)cc6)cc5)CC4)CC3)CC2)ccc1Nc1ncc2c(n1)N(S(C)(=O)=O)c1ccccc1C(=O)N2C` [Compound 156, N-(4′-((1-((1-(1-(3-ethoxy-4-((5-methyl-11-(methylsulfonyl)-6-oxo-6,11-dihydro-5H-benzo[e]pyrimido[5,4-b][1,4]diazepin-2-yl)amino)phenyl)piperidine-4-carbonyl)piperidin-4-yl)methyl)piperidin-4-yl)oxy)-[1,1′-biphenyl]-4-yl)-3′,6-dimethoxy-[1,1′-biphenyl]-3-carboxamide] yielded an EC50 in assay [1] (Homo sapiens, MV4-11) of more than 1000 nM.
